Data taken from US8420657B2 (Novartis AG, priority 2008, dated 2013).

Key:
[1] = system: JAK2-dependent nuclear translocation of STAT5-GFP in U-2 OS osteosarcoma cells; assay: STAT5 nuclear translocation assay (Cellomics), rhEpo stimulated U-2 OS STAT5-GFP cells; assay type: cell-based; conditions: Homo sapiens, U2OS; STAT5 translocation pathway
In short: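 U-2 OS cells stably expressing STAT5a-GFP and EpoR pre-treated with compound (final 10 μM to 0.003 μM, 0.1% DMSO) for 30 min at 37° C., then stimulated 1 h with 5 U/ml rhEpo. Nuclear-cytoplasmic GFP differential quantified by automated imaging (≥1000 cells/well, Hoechst nuclear mask). IC50 from % translocation normalized to untreated and DMSO-stimulated controls.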

[2] = target: T1, GST-JAK2(808-1132) (Homo sapiens, UniProt O60674); assay: JAK2 kinase assay (Caliper mobility shift, LabChip 3000); assay type: biochemical
T1 construct: GST-JAK2(808-1132); purchased Invitrogen (Carlsbad, USA) #4288
T1 sequence (O60674 808-1132): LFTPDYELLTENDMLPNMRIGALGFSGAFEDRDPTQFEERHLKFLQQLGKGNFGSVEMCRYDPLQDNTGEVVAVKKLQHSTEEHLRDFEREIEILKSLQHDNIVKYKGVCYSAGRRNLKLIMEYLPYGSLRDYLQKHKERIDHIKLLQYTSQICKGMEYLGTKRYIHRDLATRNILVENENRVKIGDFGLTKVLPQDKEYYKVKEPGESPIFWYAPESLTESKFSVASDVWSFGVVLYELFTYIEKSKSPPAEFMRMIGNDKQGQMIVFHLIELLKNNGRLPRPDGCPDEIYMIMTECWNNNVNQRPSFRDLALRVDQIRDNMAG
In short: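 Recombinant GST-JAK2(808-1132) kinase domain with FITC-labelled JAK3tide peptide substrate and ATP; 60 min at 30 °C, EDTA stop. Substrate/product ratio read by microfluidic mobility shift; compounds at 8 final concentrations, 10 to 0.003 μM.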

| SMILES | IC50 [1] | IC50 [2] |
| --- | --- | --- |
| Cc1ccc(Nc2ncc3ccn(-c4cc(F)c(CN5CCOCC5)c(F)c4)c3n2)cc1C(=O)N1C[C@@H](C)N[C@@H](C)C1 [Example 452, {5-[7-(3,5-Difluoro-4-morpholin-4-ylmethyl-phenyl)-7H-pyrrolo[2,3-d]pyrimidin-2-ylamino]-2-methyl-phenyl}-(cis-3,5-dimethyl-piperazin-1-yl)-methanone] | 79.5 nM | 6.2 nM |
| C[C@@H]1CN(Cc2c(F)cc(-n3ccc4cnc(Nc5ccc(N6CCNCC6)nc5)nc43)cc2F)C[C@H](C)O1 [Example 454, {7-[4-(cis-2,6-dimethyl-morpholin-4-ylmethyl)-3,5-difluoro-phenyl]-7H-pyrrolo[2,3-d]pyrimidin-2-yl}-(6-piperazin-1-yl-pyridin-3-yl)-amine] | 53.5 nM | 4.5 nM |
| C[C@@H]1CN(C(=O)c2cccc(Nc3ncc4ccn(-c5cc(F)c(CN6CCOCC6)c(F)c5)c4n3)c2)C[C@H](C)N1 [Example 455, {3-[7-(3,5-Difluoro-4-morpholin-4-ylmethyl-phenyl)-7H-pyrrolo[2,3-d]pyrimidin-2-ylamino]-phenyl}-(cis-3,5-dimethyl-piperazin-1-yl)-methanone] | 38 nM | 4.3 nM |
| O=C(c1cccc(Nc2ncc3ccn(-c4cc(F)c(CN5CCOCC5)c(F)c4)c3n2)c1)N1CCN(C2CC2)CC1 [Example 459, (4-Cyclopropyl-piperazin-1-yl)-{3-[7-(3,5-difluoro-4-morpholin-4-ylmethyl-phenyl)-7H-pyrrolo[2,3-d]pyrimidin-2-ylamino]-phenyl}-methanone] | 104 nM | 5.1 nM |
| C[C@@H]1CN(Cc2ccc(Nc3ncc4ccn(-c5cc(F)c(CN6CCCC6=O)c(F)c5)c4n3)cc2)C[C@H](C)N1 [Example 462, 1-(4-{2-[4-(cis-3,5-Dimethyl-piperazin-1-ylmethyl)-phenylamino]-pyrrolo[2,3-d]pyrimidin-7-yl}-2,6-difluoro-benzyl)-pyrrolidin-2-one] | 51 nM | ≤ 3 nM |
| Cc1ccc(Nc2ncc3ccn(-c4cc(F)c(CN5CCCC5=O)c(F)c4)c3n2)cc1CN1CCNCC1 [Example 463, 1-{2,6-Difluoro-4-[2-(4-methyl-3-piperazin-1-ylmethyl-phenylamino)-pyrrolo[2,3-d]pyrimidin-7-yl]-benzyl}-pyrrolidin-2-one] | 48 nM | ≤ 3 nM |
| C[C@@H]1CN(Cc2ccc(Nc3ncc4ccn(-c5ccc(S(=O)(=O)NC(C)(C)C)cc5)c4n3)cc2)C[C@H](C)N1 [Example 464, N-tert-Butyl-4-{2-[4-(cis-3,5-dimethyl-piperazin-1-ylmethyl)-phenylamino]-pyrrolo[2,3-d]pyrimidin-7-yl}-benzenesulfonamide] | 59 nM | ≤ 3 nM |
| CN1CCN(C(=O)c2ccc(Nc3ncc4ccn(-c5cc(F)c(CN6CCOCC6)c(F)c5)c4n3)cn2)CC1 [Example 466, {5-[7-(3,5-Difluoro-4-morpholin-4-ylmethyl-phenyl)-7H-pyrrolo[2,3-d]pyrimidin-2-ylamino]-pyridin-2-yl}-(4-methyl-piperazin-1-yl)-methanone] | 56 nM | 7.9 nM |
| CN1CCN(Cc2ccc(Nc3ncc4ccn(-c5cc(F)c(CN6CCOCC6)c(F)c5)c4n3)cn2)CC1 [Example 472, [7-(3,5-Difluoro-4-morpholin-4-yl methyl-phenyl)-7H-pyrrolo[2,3-d]pyrimidin-2-yl]-[6-(4-methyl-piperazin-1-ylmethyl)-pyridin-3-yl]-amine] | 92 nM | 3.6 nM |
| C[C@@H]1CN(Cc2ccc(Nc3ncc4ccn(-c5cc(F)c(CN6CCOCC6)c(F)c5)c4n3)c(F)c2)C[C@H](C)N1 [Example 477, [7-(3,5-Difluoro-4-morpholin-4-ylmethyl-phenyl)-7H-pyrrolo[2,3-d]pyrimidin-2-yl]-[4-(cis-3,5-dimethyl-piperazin-1-ylmethyl)-2-fluoro-phenyl]-amine] | 718 nM | 17 nM |
| CN1CCN(c2ccc(Nc3ncc4ccn(-c5cc(F)c(CN6CCOCC6)c(F)c5)c4n3)cn2)C(=O)C1 [Example 478, 1-{5-[7-(3,5-Difluoro-4-morpholin-4-ylmethyl-phenyl)-7H-pyrrolo[2,3-d]pyrimidin-2-ylamino]-pyridin-2-yl}-4-methyl-piperazin-2-one] | 51 nM | 5.5 nM |

The next compounds have a lower IC50 [1] than those just listed; values first:

| IC50 [1] | IC50 [2] | SMILES |
| --- | --- | --- |
| 36 nM | 4.1 nM | C[C@@H]1CN(c2ccc(Nc3ncc4ccn(-c5cc(F)cc(F)c5)c4n3)cn2)C[C@H](C)N1 [Example 453, [7-(3,5-Difluoro-phenyl)-7H-pyrrolo[2,3-d]pyrimidin-2-yl]-[6-(cis-3,5-dimethyl-piperazin-1-yl)-pyridin-3-yl]-amine] |
| 31.5 nM | 3.5 nM | Fc1cc(-n2ccc3cnc(Nc4ccc(CN5CCC(F)(F)C5)cc4)nc32)cc(F)c1CN1CCOCC1 [Example 471, [7-(3,5-Difluoro-4-morpholin-4-ylmethyl-phenyl)-7H-pyrrolo[2,3-d]pyrimidin-2-yl]-[4-(3,3-difluoro-pyrrolidin-1-ylmethyl)-phenyl]-amine] |
| 24 nM | 3.8 nM | Cc1ccc(Nc2ncc3ccn(-c4cc(F)c(CN5CCOCC5)c(F)c4)c3n2)cc1C(=O)N1CCN(C)CC1 [Example 451, {5-[7-(3,5-Difluoro-4-morpholin-4-ylmethyl-phenyl)-7H-pyrrolo[2,3-d]pyrimidin-2-ylamino]-2-methyl-phenyl}-(4-methyl-piperazin-1-yl)-methanone] |
| 21 nM | ≤ 3 nM | Fc1cc(-n2ccc3cnc(Nc4ccc(N5CCN(C6CC6)CC5)nc4)nc32)cc(F)c1CN1CCOCC1 [Example 457, [6-(4-Cyclopropyl-piperazin-1-yl)-pyridin-3-yl]-[7-(3,5-difluoro-4-morpholin-4-ylmethyl-phenyl)-7H-pyrrolo[2,3-d]pyrimidin-2-yl]-amine] |
| 17 nM | 61 nM | O=C1CNCCN1c1ccc(Nc2ncc3ccn(-c4cc(F)c(CN5CCOCC5)c(F)c4)c3n2)cn1 [Example 470, 1-{5-[7-(3,5-Difluoro-4-morpholin-4-ylmethyl-phenyl)-7H-pyrrolo[2,3-d]pyrimidin-2-ylamino]-pyridin-2-yl}-piperazin-2-one] |
| 15 nM | 3.5 nM | OC1CN(Cc2ccc(Nc3ncc4ccn(-c5cc(F)c(CN6CCOCC6)c(F)c5)c4n3)cc2)C1 [Example 479, 1-{4-[7-(3,5-Difluoro-4-morpholin-4-ylmethyl-phenyl)-7H-pyrrolo[2,3-d]pyrimidin-2-ylamino]-benzyl}-azetidin-3-ol] |
| 14 nM | ≤ 3 nM | C[C@@H]1CN(Cc2ccc(Nc3ncc4ccn(-c5ccc6c(c5)CCC(=O)N6)c4n3)cc2)C[C@H](C)N1 [Example 468, 6-{2-[4-(cis-3,5-Dimethyl-piperazin-1-ylmethyl)-phenylamino]-pyrrolo[2,3-d]pyrimidin-7-yl}-3,4-dihydro-1H-quinolin-2-one] |
| 12.3 nM | ≤ 3 nM | CC1(C)CN(Cc2ccc(Nc3ncc4ccn(-c5cc(F)c(CN6CCOCC6)c(F)c5)c4n3)cc2)CCN1 [Example 473, [7-(3,5-Difluoro-4-morpholin-4-ylmethyl-phenyl)-7H-pyrrolo[2,3-d]pyrimidin-2-yl]-[4-(3,3-dimethyl-piperazin-1-ylmethyl)-phenyl]-amine] |
| 8.6 nM | ≤ 3 nM | Fc1cc(-n2ccc3cnc(Nc4ccc([C@H]5CNCCN5)cc4)nc32)cc(F)c1CN1CCOCC1 [Example 474, [7-(3,5-Difluoro-4-morpholin-4-ylmethyl-phenyl)-7H-pyrrolo[2,3-d]pyrimidin-2-yl]-((S)-4-piperazin-2-yl-phenyl)-amine] |
| 7.4 nM | 5 nM | CN1CCN(c2ccc(Nc3ncc4ccn(-c5ccc6c(c5)CC(=O)N6C)c4n3)cn2)CC1 [Example 448, 1-Methyl-5-{2-[6-(4-methyl-piperazin-1-yl)-pyridin-3-ylamino]-pyrrolo[2,3-d]pyrimidin-7-yl}-1,3-dihydro-indol-2-one] |
| 5.3 nM | ≤ 3 nM | Fc1cc(-n2ccc3cnc(Nc4ccc([C@@H]5CNCCN5)cc4)nc32)cc(F)c1CN1CCOCC1 [Example 475, [7-(3,5-Difluoro-4-morpholin-4-ylmethyl-phenyl)-7H-pyrrolo[2,3-d]pyrimidin-2-yl]-((R)-4-piperazin-2-yl-phenyl)-amine] |
| 3.2 nM | ≤ 3 nM | CN(C)CCN1CCN(c2ccc(Nc3ncc4ccn(-c5cc(F)c(CN6CCOCC6)c(F)c5)c4n3)cn2)CC1 [Example 465, [7-(3,5-Difluoro-4-morpholin-4-ylmethyl-phenyl)-7H-pyrrolo[2,3-d]pyrimidin-2-yl]-{6-[4-(2-dimethylamino-ethyl)-piperazin-1-yl]-pyridin-3-yl}-amine] |
| 1.9 nM | ≤ 3 nM | Fc1cc(-n2ccc3cnc(Nc4ccnc(N5CCN(C6CC6)CC5)c4)nc32)cc(F)c1CN1CCOCC1 [Example 456, [2-(4-Cyclopropyl-piperazin-1-yl)-pyridin-4-yl]-[7-(3,5-difluoro-4-morpolin-4-ylmethyl-phenyl)-7H-pyrrolo[2,3-d]pyrimidin-2-yl]-amine] |
| 1.4 nM | ≤ 3 nM | C[C@@H]1CN(c2ccc(Nc3ncc4ccn(-c5cc(F)c(CN6CCCC6=O)c(F)c5)c4n3)cn2)C[C@H](C)N1 [Example 458, 1-(4-{2-[6-(cis-3,5-Dimethyl-piperazin-1-yl)-pyridin-3-ylamino]-pyrrolo[2,3-d]pyrimidin-7-yl}-2,6-difluoro-benzyl)-pyrrolidin-2-one] |
